Source: ChEMBL document CHEMBL1201862, “PubChem BioAssay data set” (2004)
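Method: 48-hour compound exposure of cells in 96-well plates, five concentrations, linear interpolation of endpoints. Here, GI50 denotes the concentration required for 50% inhibition of growth.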 Calls of active or inactive are those of the source. Rule as the data show it: active = GI50 up to about 1.1 µM and inactive = higher.

Assays:
Assay in all cases: inhibition of tumour cell growth, NCI panel, 48 h
[1] = system: NCI-H460
[2] = system: SNB-19
[3] = system: HOP-62
[4] = system: NCI-H23
[5] = system: SR
[6] = system: M19-MEL
[7] = system: K562
[8] = system: UACC-257
[9] = system: U-251
[10] = system: EKVX
[11] = system: KM12
[12] = system: A549
[13] = system: RXF 631
[14] = system: UACC-62
[15] = system: HL-60
[16] = system: UO-31
[17] = system: M14
[18] = system: IGROV-1
[19] = system: OVCAR-8
[20] = system: SK-OV-3
[21] = system: OVCAR-5
[22] = system: TK-10
[23] = system: MOLT-4
[24] = system: DMS-114
[25] = system: NCI-H226
[26] = system: SF-295
[27] = system: SNB-78
[28] = system: CCRF-CEM
[29] = system: RXF 393
[30] = system: HOP-92
[31] = system: NCI-H522
[32] = system: A498
[33] = system: HT-29
[34] = system: HCT-116
[35] = system: SK-MEL-28
[36] = system: ACHN
[37] = system: LOX IMVI
[38] = system: OVCAR-3
[39] = system: SN12C
[40] = system: RPMI-8226
[41] = system: XF498
[42] = system: Malme-3M
[43] = system: OVCAR-4
[44] = system: HOP-18
[45] = system: 786-0
[46] = system: HCT-15
[47] = system: CAKI-1
[48] = system: DLD-1
[49] = system: DMS-273
[50] = system: SNB-75
[51] = system: KM-20L2
[52] = system: LXFL 529
[53] = system: HCC 2998
[54] = system: SW-620
[55] = system: SK-MEL-5
[56] = system: COLO 205
[57] = system: SF-268
[58] = system: SF-539
[59] = system: SK-MEL-2

SMILES: C[C@H]1C(=O)c2c(cc(O)c(C3OC(CO)C(O)C(O)C3O)c2O)OC1c1ccc(O)c(O)c1 (stereo partly specified)
- GI50 [1]: > 100 µM (inactive)
- GI50 [2]: > 100 µM (inactive)
- GI50 [3]: > 100 µM (inactive)
- GI50 [4]: > 100 µM (inactive)
- GI50 [5]: > 100 µM (inactive)
- GI50 [6]: > 100 µM (inactive)
- GI50 [7]: > 10 µM (inactive)
- GI50 [8]: > 100 µM (inactive)
- GI50 [9]: > 100 µM (inactive)
- GI50 [10]: > 100 µM (inactive)
- GI50 [11]: > 100 µM (inactive)
- GI50 [12]: > 100 µM (inactive)
- GI50 [13]: > 100 µM (inactive)
- GI50 [14]: > 100 µM (inactive)
- GI50 [15]: > 100 µM (inactive)
- GI50 [16]: > 100 µM (inactive)
- GI50 [17]: > 100 µM (inactive)
- GI50 [18]: > 100 µM (inactive)
- GI50 [19]: > 100 µM (inactive)
- GI50 [20]: > 100 µM (inactive)
- GI50 [21]: > 100 µM (inactive)
- GI50 [22]: > 100 µM (inactive)
- GI50 [23]: > 100 µM (inactive)
- GI50 [24]: > 100 µM (inactive)
- GI50 [25]: 64.9 µM (inactive)
- GI50 [26]: > 100 µM (inactive)
- GI50 [27]: > 100 µM (inactive)
- GI50 [28]: > 100 µM (inactive)
- GI50 [29]: > 100 µM (inactive)
- GI50 [30]: > 100 µM (inactive)
- GI50 [31]: > 100 µM (inactive)
- GI50 [32]: > 100 µM (inactive)
- GI50 [33]: > 100 µM (inactive)
- GI50 [34]: > 100 µM (inactive)
- GI50 [35]: > 100 µM (inactive)
- GI50 [36]: > 100 µM (inactive)

SMILES: COc1cc(Cl)cc(N(O)C(C)=O)c1OCc1ccccc1
- GI50 [1]: 48.1 µM (inactive)
- GI50 [2]: 80.9 µM (inactive)
- GI50 [3]: 65.6 µM (inactive)
- GI50 [37]: 77.6 µM (inactive)
- GI50 [4]: > 100 µM (inactive)
- GI50 [5]: 44.3 µM (inactive)
- GI50 [6]: 70.8 µM (inactive)
- GI50 [7]: 75.9 µM (inactive)
- GI50 [38]: 74.6 µM (inactive)
- GI50 [39]: > 100 µM (inactive)
- GI50 [8]: > 100 µM (inactive)
- GI50 [9]: 80.4 µM (inactive)
- GI50 [40]: 96.6 µM (inactive)
- GI50 [41]: 36.9 µM (inactive)
- GI50 [42]: > 100 µM (inactive)
- GI50 [10]: 30.9 µM (inactive)
- GI50 [11]: > 100 µM (inactive)
- GI50 [12]: 68.5 µM (inactive)
- GI50 [14]: 49.7 µM (inactive)
- GI50 [15]: 40.7 µM (inactive)
- GI50 [43]: > 100 µM (inactive)
- GI50 [44]: > 100 µM (inactive)
- GI50 [45]: 61.8 µM (inactive)
- GI50 [16]: 51.8 µM (inactive)
- GI50 [17]: > 100 µM (inactive)
- GI50 [46]: 51.4 µM
- GI50 [18]: > 100 µM (inactive)
- GI50 [19]: 70.8 µM (inactive)
- GI50 [20]: 74 µM (inactive)
- GI50 [21]: > 100 µM (inactive)
- GI50 [22]: 79.4 µM (inactive)
- GI50 [23]: 50.4 µM (inactive)
- GI50 [47]: > 100 µM (inactive)
- GI50 [48]: > 100 µM (inactive)
- GI50 [49]: 49.9 µM (inactive)
- GI50 [24]: 25.6 µM (inactive)
- GI50 [25]: 65.8 µM (inactive)
- GI50 [26]: 66.2 µM (inactive)
- GI50 [27]: > 100 µM (inactive)
- GI50 [50]: 24.8 µM (inactive)
- GI50 [28]: 38.1 µM (inactive)
- GI50 [29]: > 100 µM (inactive)
- GI50 [51]: 83.2 µM (inactive)
- GI50 [52]: 75.9 µM (inactive)
- GI50 [53]: > 100 µM (inactive)
- GI50 [30]: > 100 µM (inactive)
- GI50 [31]: 62.1 µM (inactive)
- GI50 [32]: > 100 µM (inactive)
- GI50 [33]: 64.6 µM (inactive)
- GI50 [54]: > 100 µM (inactive)
- GI50 [55]: > 100 µM (inactive)
- GI50 [56]: > 100 µM (inactive)
- GI50 [34]: 75.2 µM (inactive)
- GI50 [35]: > 100 µM (inactive)
- GI50 [57]: 44.8 µM (inactive)
- GI50 [58]: 83.4 µM (inactive)
- GI50 [36]: 63.4 µM (inactive)

SMILES: O=[N+]([O-])c1ccc(/C(Cl)=C/c2ccc(/C=C(\Cl)c3ccc([N+](=O)[O-])cc3[N+](=O)[O-])cc2)c([N+](=O)[O-])c1
- GI50 [1]: > 100 µM (inactive)
- GI50 [3]: > 100 µM (inactive)
- GI50 [37]: > 100 µM (inactive)
- GI50 [4]: > 100 µM (inactive)
- GI50 [5]: > 100 µM (inactive)
- GI50 [6]: > 100 µM (inactive)
- GI50 [38]: 0.729 µM (active)
- GI50 [39]: > 100 µM (inactive)
- GI50 [8]: > 100 µM (inactive)
- GI50 [9]: > 100 µM (inactive)
- GI50 [40]: > 100 µM (inactive)
- GI50 [42]: > 100 µM (inactive)
- GI50 [10]: > 100 µM (inactive)
- GI50 [12]: > 100 µM (inactive)
- GI50 [13]: > 100 µM (inactive)
- GI50 [14]: > 100 µM (inactive)
- GI50 [15]: 57.4 µM (inactive)
- GI50 [43]: > 100 µM (inactive)
- GI50 [45]: > 100 µM (inactive)
- GI50 [16]: > 100 µM (inactive)
- GI50 [17]: > 100 µM (inactive)
- GI50 [46]: > 100 µM
- GI50 [18]: > 100 µM (inactive)
- GI50 [19]: > 100 µM (inactive)
- GI50 [20]: > 100 µM (inactive)
- GI50 [21]: > 100 µM (inactive)
- GI50 [22]: > 100 µM (inactive)
- GI50 [23]: > 100 µM (inactive)
- GI50 [47]: > 100 µM (inactive)
- GI50 [48]: > 100 µM (inactive)
- GI50 [49]: > 100 µM (inactive)
- GI50 [24]: > 100 µM (inactive)
- GI50 [25]: > 100 µM (inactive)
- GI50 [26]: > 100 µM (inactive)
- GI50 [27]: > 100 µM (inactive)
- GI50 [50]: > 100 µM (inactive)
- GI50 [59]: > 100 µM (inactive)
- GI50 [29]: > 100 µM (inactive)
- GI50 [51]: 0.188 µM (active)
- GI50 [52]: > 100 µM (inactive)
- GI50 [53]: > 100 µM (inactive)
- GI50 [30]: > 100 µM (inactive)
- GI50 [31]: > 100 µM (inactive)
- GI50 [32]: > 100 µM (inactive)
- GI50 [33]: > 100 µM (inactive)
- GI50 [54]: > 100 µM (inactive)
- GI50 [55]: > 100 µM (inactive)
- GI50 [56]: > 100 µM (inactive)
- GI50 [34]: > 100 µM (inactive)
- GI50 [35]: > 100 µM (inactive)
- GI50 [57]: > 100 µM (inactive)
- GI50 [58]: > 100 µM (inactive)
- GI50 [36]: > 100 µM (inactive)
